According to article PMC6499206, “Quantification of Volatile Metabolites Derived From Garlic (Allium sativum) in Human Urine” (Frontiers in Nutrition, 2019):

Test: Quantification of garlic-derived metabolites in human urine after ingestion of 3 g raw garlic (SIDA, SAFE, HRGC-MS / HRGC-GC-MS)
Assay type: in vivo
Details: for metabolite concentration in urine / metabolite concentration in urine, creatinine-normalized: 3 g raw garlic
Text: Human urine samples were obtained from 18 volunteers (age 22–38 years, mean 27 years; 11 females, 7 males); thereby, one volunteer conducted the whole experimental series twice. At the time of examination, volunteers reported no known illness that might have potentially influenced the metabolism or the excretion of urine. The test persons were instructed to avoid foods that were rich in sulfur-containing substances at the testing day as well as 2 days preceding the testing day, namely garlic, onion, wild garlic, chives, cabbage, and leek, and were only allowed to consume the garlic sample provided in the course of the experiments. Additionally, subjects were asked to keep records of the food (including food supplements) and beverages they consumed during these 3 testing days. Generally, the overall panelists' requirements were in accordance with our previous studies ([5], [16]).
On the sampling day, the outer garlic cloves of a whole garlic bulb were peeled and cut into ~3 mm cubes by using a garlic cutter (Genius GmbH, Limburg/Lahn, Germany). Subsequently these cubes were thoroughly mixed and aliquoted into 3 g portions. Three to four test persons conducted the experiment at the same day. Each test person was asked to ingest a garlic portion of 3 g. In total, eight consecutive urine samples were provided by each test person, comprising one whole urine set. The samples were collected in sterile brown glass bottles, with sampling times as follows: one sample was provided directly prior to garlic consumption. The series of the second to eighth sample was then obtained at about 0.5, 1, 2, 4, 6, 8, and 24 h after garlic consumption, respectively. Between the first urine sample (prior to garlic consumption) and the seventh urine sample (8 h after garlic consumption) test persons only spent urine at the specific time points mentioned before. Another sample was provided at the next morning (24 h after garlic consumption). Between the samples provided 8 and 24 h after garlic consumption no urine was collected. All samples were immediately placed into a −80°C freezer and were kept frozen until further analysis.
The samples of each set were termed according to their sampling time. The following list provides the time intervals that are related to the respective sample name: • - pre: before garlic consumption • - 0.5 h post: 0.4–0.8 h after garlic consumption • - 1 h post: 0.9–1.3 h after garlic consumption • - 2 h post: 1.8 h−2.2 h after garlic consumption • - 4 h post: 3.8–4.4 h after garlic consumption • - 6 h post: 5.8–6.4 h after garlic consumption • - 8 h post: 7.8–8.4 h after garlic consumption • - 24 h post: 23.8–25.6 h after garlic consumption
A creatinine kit (Labor+Technik Eberhard Lehmann GmbH, Berlin, Germany) was used to determine the creatinine content in each urine sample. The determination principle of this kit is based on the reaction of creatinine with picric acid under basic conditions (Jaffé reaction). The formed complex was detected photometrically at a wavelength of 492 nm.
For quantification purposes, the deuterated standards ^2H3-AMS, ^2H3-AMSO, and ^2H3-AMSO2 were added to the sample and stirred for 10 min. Subsequently, DCM was added in a ratio of 1:2 (DCM/human urine; v/v) and this solution was stirred for further 30 min at room temperature. To isolate the volatile fraction from the urine samples we then applied SAFE-distillation ([17]), thereby distilling the respective samples at 50°C. After completion of the distillation process, 10 mL of DCM were applied in each case to rinse the SAFE apparatus and to ensure complete transition of the volatile compounds. This process was repeated with another 10 mL of DCM. After thawing, the obtained aqueous distillate phase was extracted three times with 25 mL DCM. The organic phases were combined, dried over anhydrous Na2SO4 and concentrated to a total volume of 100 μL by means of Vigreux distillation and subsequent micro-distillation at 50°C. […]

## C=CCS(C)(=O)=O [AMSO2, allyl methyl sulfone]
3 g raw garlic in both studies, milk data ref 20
  concentration in urine compared with human milk: about twice as high
U I, 0.5 h post (0.55 h)
  metabolite concentration in urine: 41.7 µg/kg
  metabolite concentration in urine, creatinine-normalized: 5.8 µg/mmol creatinine
U I, 1 h post (1.03 h)
  metabolite concentration in urine: 98.5 µg/kg
  metabolite concentration in urine, creatinine-normalized: 106.3 µg/mmol creatinine
U I, 2 h post (2.05 h)
  metabolite concentration in urine: 138.8 µg/kg
  metabolite concentration in urine, creatinine-normalized: 68.4 µg/mmol creatinine
U I, 4 h post (4.05 h)
  metabolite concentration in urine: 172.3 µg/kg
  metabolite concentration in urine, creatinine-normalized: 19.6 µg/mmol creatinine
U I, 6 h post (6.05 h)
  metabolite concentration in urine: 170.7 µg/kg
  metabolite concentration in urine, creatinine-normalized: 18.6 µg/mmol creatinine
U I, 8 h post (8.05 h)
  metabolite concentration in urine: 119.9 µg/kg
  metabolite concentration in urine, creatinine-normalized: 16.3 µg/mmol creatinine
U I, 24 h post (25.55 h)
  metabolite concentration in urine: 5.6 µg/kg
  metabolite concentration in urine, creatinine-normalized: 0.9 µg/mmol creatinine
U I, pre (-0.03 h)
  metabolite concentration in urine: < LOD^3
  metabolite concentration in urine, creatinine-normalized: < LOD^3
U II, 0.5 h post (0.50 h)
  metabolite concentration in urine: 32.4 µg/kg
  metabolite concentration in urine, creatinine-normalized: 3.0 µg/mmol creatinine
U II, 1 h post (1.00 h)
  metabolite concentration in urine: 68.0 µg/kg
  metabolite concentration in urine, creatinine-normalized: 26.1 µg/mmol creatinine
U II, 2 h post (2.00 h)
  metabolite concentration in urine: 62.1 µg/kg
  metabolite concentration in urine, creatinine-normalized: 61.0 µg/mmol creatinine
U II, 4 h post (4.00 h)
  metabolite concentration in urine: 75.1 µg/kg
  metabolite concentration in urine, creatinine-normalized: 13.8 µg/mmol creatinine
U II, 6 h post (6.00 h)
  metabolite concentration in urine: 61.7 µg/kg
  metabolite concentration in urine, creatinine-normalized: 6.8 µg/mmol creatinine
U II, 8 h post (8.00 h)
  metabolite concentration in urine: 41.3 µg/kg
  metabolite concentration in urine, creatinine-normalized: 4.9 µg/mmol creatinine
U II, 24 h post (24.12 h)
  metabolite concentration in urine: 1.9 µg/kg
  metabolite concentration in urine, creatinine-normalized: 0.1 µg/mmol creatinine
U II, pre (-0.13 h)
  metabolite concentration in urine: < LOD^3
  metabolite concentration in urine, creatinine-normalized: < LOD^3
U III, 0.5 h post (0.53 h)
  metabolite concentration in urine: 41.9 µg/kg
  metabolite concentration in urine, creatinine-normalized: 24.9 µg/mmol creatinine
U III, 1 h post (1.07 h)
  metabolite concentration in urine: 83.3 µg/kg
  metabolite concentration in urine, creatinine-normalized: 117.5 µg/mmol creatinine
U III, 2 h post (2.18 h)
  metabolite concentration in urine: 145.2 µg/kg
  metabolite concentration in urine, creatinine-normalized: 89.7 µg/mmol creatinine
U III, 4 h post (4.35 h)
  metabolite concentration in urine: 168.2 µg/kg
  metabolite concentration in urine, creatinine-normalized: 63.4 µg/mmol creatinine
U III, 6 h post (6.35 h)
  metabolite concentration in urine: 134.9 µg/kg
  metabolite concentration in urine, creatinine-normalized: 26.1 µg/mmol creatinine
U III, 8 h post (8.43 h)
  metabolite concentration in urine: 86.7 µg/kg
  metabolite concentration in urine, creatinine-normalized: 15.3 µg/mmol creatinine
U III, 24 h post (23.90 h)
  metabolite concentration in urine: 5.6 µg/kg
  metabolite concentration in urine, creatinine-normalized: 0.9 µg/mmol creatinine
U III, pre (-0.03 h)
  metabolite concentration in urine: 7.3 µg/kg
  metabolite concentration in urine, creatinine-normalized: 1.3 µg/mmol creatinine
U IV, 0.5 h post (0.55 h)
  metabolite concentration in urine: 31.0 µg/kg
  metabolite concentration in urine, creatinine-normalized: 6.6 µg/mmol creatinine
U IV, 1 h post (1.05 h)
  metabolite concentration in urine: 63.2 µg/kg
  metabolite concentration in urine, creatinine-normalized: 52.7 µg/mmol creatinine
U IV, 2 h post (2.12 h)
  metabolite concentration in urine: 82.8 µg/kg
  metabolite concentration in urine, creatinine-normalized: 52.5 µg/mmol creatinine
U IV, 4 h post (4.05 h)
  metabolite concentration in urine: 108.4 µg/kg
  metabolite concentration in urine, creatinine-normalized: 22.3 µg/mmol creatinine
